Measured values as given in ChEMBL document CHEMBL1145487, “Evidence and possible consequences of the phosphorylation of nucleoside reverse transcriptase inhibitors in human red blood cells” (Antimicrob Agents Chemother, 2007).
Blank lines part the entries; values can stand above or below the compound they belong to.

Legend:
[1] = Drug level in human RBC assessed as concentration of tenofovir diphosphate per 10^6 cells after 11.9 hrs; assay type: ADME, cell-based; details: erythrocyte
[2] = Drug level in human RBC assessed as concentration of tenofovir diphosphate per 10^6 cells after 13.3 hrs; assay type: ADME, cell-based; details: erythrocyte
[3] = Drug level in human RBC assessed as concentration of tenofovir diphosphate per 10^6 cells after 0.8 hrs; assay type: ADME, cell-based; details: erythrocyte
[4] = Drug level in human RBC assessed as concentration of tenofovir diphosphate per 10^6 cells after 14.3 hrs; assay type: ADME, cell-based; details: erythrocyte
[5] = Drug level in human RBC assessed as concentration of tenofovir diphosphate per 10^6 cells after 13.5 hrs; assay type: ADME, cell-based; details: erythrocyte
PBMC [6] = assay: Drug level in human PBMC assessed as concentration of tenofovir diphosphate per 10^6 cells after 11.9 hrs; assay type: ADME, cell-based
PBMC [7] = assay: Drug level in human PBMC assessed as concentration of tenofovir diphosphate per 10^6 cells after 13.9 hrs; assay type: ADME, cell-based
PBMC [8] = assay: Drug level in human PBMC assessed as concentration of tenofovir diphosphate per 10^6 cells after 0.8 hrs; assay type: ADME, cell-based
PBMC [9] = assay: Drug level in human PBMC assessed as concentration of tenofovir diphosphate per 10^6 cells after 14.3 hrs; assay type: ADME, cell-based
[10] = Ratio of drug level in human RBC to human PBMC assessed as concentration of Lamivudine triphosphate after 0.8 hrs; assay type: ADME; details: erythrocytes
[11] = Ratio of drug level in human RBC to human PBMC assessed as concentration of Lamivudine triphosphate after 14.3 hrs; assay type: ADME; details: erythrocytes
[12] = Ratio of drug level in human RBC to human PBMC assessed as concentration of lamivudin triphosphate after 13.5 hrs; assay type: ADME; details: erythrocytes
PBMC [13] = assay: Drug level in non-lysed human PBMC assessed as concentration of tenofovir diphosphate after 2 hrs; assay type: ADME, cell-based
PBMC [14] = assay: Drug level in non-lysed human PBMC assessed as concentration of tenofovir diphosphate after 9.5 hrs; assay type: ADME, cell-based
PBMC [15] = assay: Drug level in RBC lysed human PBMC assessed as concentration of tenofovir diphosphate after 2 hrs; assay type: ADME, cell-based
PBMC [16] = assay: Drug level in RBC lysed human PBMC assessed as concentration of tenofovir diphosphate after 9.5 hrs; assay type: ADME, cell-based
PBMC [17] = assay: Ratio of drug level in non-lysed human PBMC to RBC lysed human PBMC assessed as concentration of tenofovir diphosphate after 2 hrs; assay type: ADME, cell-based
PBMC [18] = assay: Ratio of drug level in non-lysed human PBMC to RBC lysed human PBMC assessed as concentration of tenofovir diphosphate after 9.5 hrs; assay type: ADME, cell-based
PBMC [19] = assay: Drug level in human PBMC assessed as concentration of tenofovir diphosphate per 10^6 cells after 13.5 hrs; assay type: ADME, cell-based
[20] = Ratio of drug level in human RBC to human PBMC assessed as concentration of Lamivudine triphosphate after 11.9 hrs; assay type: ADME; details: erythrocytes
[21] = Ratio of drug level in human RBC to human PBMC assessed as concentration of Lamivudine triphosphate after 13.3 hrs; assay type: ADME; details: erythrocytes
[22] = Drug level in human RBC assessed as concentration of Lamivudine triphosphate per 10^6 cells; assay type: ADME, cell-based; details: erythrocyte
[23] = Drug level in human RBC assessed as concentration of Lamivudine triphosphate per 10^6 cells after 0.3 hrs; assay type: ADME, cell-based; details: erythrocyte
PBMC [24] = assay: Drug level in human PBMC assessed as concentration of Lamivudine triphosphate per 10^6 cells; assay type: ADME, cell-based
PBMC [25] = assay: Drug level in human PBMC assessed as concentration of Lamivudine triphosphate per 10^6 cells after 0.3 hrs; assay type: ADME, cell-based
[26] = Ratio of drug level in human RBC to human PBMC assessed as concentration of Lamivudine triphosphate; assay type: ADME; details: erythrocytes
[27] = Ratio of drug level in human RBC to human PBMC assessed as concentration of Lamivudine triphosphate after 0.3 hrs; assay type: ADME; details: erythrocytes

SMILES: CC(C)OC(=O)OCOP(=O)(CO[C@H](C)Cn1cnc2c(N)ncnc21)OCOC(=O)OC(C)C.O=C(O)/C=C/C(=O)O [TENOFOVIR DISOPROXIL FUMARATE]
Drug uptake [1]: 143 fmol | Drug uptake [2]: 165 fmol | Drug uptake [3]: 443 fmol | Drug uptake [4]: 73.3 fmol | Drug uptake [5]: 245 fmol | Drug uptake (PBMC [6]): 131 fmol | Drug uptake (PBMC [7]): 148 fmol | Drug uptake (PBMC [8]): 226 fmol | Drug uptake (PBMC [9]): 95.5 fmol | Ratio [10]: 2 | Ratio [11]: 0.8 | Ratio [12]: 1.2 | Drug uptake (PBMC [13]): 302.6 fmol | Drug uptake (PBMC [14]): 1287 fmol | Drug uptake (PBMC [15]): 376.6 fmol | Drug uptake (PBMC [16]): 182.5 fmol | Ratio (PBMC [17]): 0.8 | Ratio (PBMC [18]): 7.05 | Drug uptake (PBMC [19]): 202 fmol | Ratio [20]: 1.1 | Ratio [21]: 1.1

Drug uptake [22]: 0.04 pmol | Drug uptake [23]: 0.09 pmol | Drug uptake (PBMC [24]): 11.1 pmol | Drug uptake (PBMC [25]): 10.5 pmol | Ratio [26]: 0.004 | Ratio [27]: 0.009
SMILES: Nc1ccn([C@@H]2CS[C@H](CO)O2)c(=O)n1 (single isomer, unassigned) [LAMIVUDINE]
